Assay results published in US4220644A, “7-Acylamino-3-(substituted tetrazolyl thiomethyl) cephalosporins” (SmithKline Corporation, priority 1976, dated 1980).
≈ marks a conversion by molar mass, not a printed value. Read-outs that look alike come from different tables or passages of the source.

Key:
Salmonella ATCC 12176 = test: MIC in vitro (Table 1), Salmonella ATCC 12176; assay type: cell-based
Description: (§1) The compounds of Formula I have antibacterial activity against both Gram-positive and Gram-negative organisms. […] Compound names corresponding to numbers are given in the experimental section. For comparative purposes, data for cephamandole, which is 7-mandelamido-3-(1-methyltetrazol-5-ylthiomethyl)-3-cephem-4-carboxylic acid, is also given in Tables 1 and 2.

Kleb. pneumo. 4200 = test: In vivo mouse protection (Table 2), Kleb. pneumo. 4200
Description: (§2) Compound names corresponding to numbers are given in the experimental section. For comparative purposes, data for cephamandole, which is 7-mandelamido-3-(1-methyltetrazol-5-ylthiomethyl)-3-cephem-4-carboxylic acid, is also given in Tables 1 and 2.

S. aureus HH 127 = test: MIC in vitro (Table 1), S. aureus HH 127; assay type: cell-based; conditions: Staphylococcus aureus
Description: as §2

Proteus morgani 179 = test: MIC in vitro (Table 1), Proteus morgani 179; assay type: cell-based; conditions: read-out: MIC
Description: as §2

Kleb. pneumo. SK 1200 = test: MIC in vitro (Table 1), Kleb. pneumo. SK 1200; assay type: cell-based
Description: as §2

Shigella HH 117 = test: MIC in vitro (Table 1), Shigella HH 117; assay type: cell-based; conditions: Shigella, HH117, in vitro, read-out: MIC
Description: as §1

Kleb. pneumo. SK 4200 = test: MIC in vitro (Table 1), Kleb. pneumo. SK 4200; assay type: cell-based
Description: as §2

Pseudo. sp. HH 63 = test: MIC in vitro (Table 1), Pseudo. sp. HH 63; assay type: cell-based; conditions: in vitro, Pseudo. sp. HH 63; read-out: MIC
Description: as §1

S. aureus SK 23390 = test: MIC in vitro (Table 1), S. aureus SK 23390; assay type: cell-based; conditions: Staphylococcus aureus
Description: as §2

E. coli HH 33779 = test: MIC in vitro (Table 1), E. coli HH 33779; assay type: cell-based; conditions: Escherichia coli
Description: as §2

E. coli 12140 = test: In vivo mouse protection (Table 2), E. coli 12140
Description: as §2

Entero. cloacae HH 31254 = test: MIC in vitro (Table 1), Entero. cloacae HH 31254; assay type: cell-based; conditions: Enterobacter cloacae
Description: as §2

Strep. Faecalis HH 34358 = test: MIC in vitro (Table 1), Strep. Faecalis HH 34358; assay type: cell-based; conditions: Enterococcus faecalis
Description: as §2

E. coli SK 12140 = test: MIC in vitro (Table 1), E. coli SK 12140; assay type: cell-based; conditions: Escherichia coli, SK12140, in vitro
Description: as §2

Serra. Marc. ATCC 13880 = test: MIC in vitro (Table 1), Serra. Marc. ATCC 13880; assay type: cell-based
Description: as §2

[1] = test system: Entero. aerog. ATCC 13048; test: MIC in vitro (Table 1), Entero. aerog. ATCC 13048; assay type: cell-based
Description: as §2

[2] = Salmonella, ATCC12176, in vitro, read-out: MIC
[3] = SK23390, in vitro, S. aureus SK 23390, read-out: MIC
[4] = Escherichia coli, 12140, po, E. coli 12140, p.o.
[5] = Escherichia coli, 12140, sc, E. coli 12140, s.c.
[6] = in vitro, Strep. Faecalis HH 34358, read-out: MIC
[7] = in vitro, Kleb. pneumo. SK 4200, read-out: MIC
[8] = HH33779, in vitro, E. coli HH 33779, read-out: MIC
[9] = HH31254, in vitro, Entero. cloacae HH 31254, read-out: MIC
[10] = HH127, in vitro, S. aureus HH 127, read-out: MIC
[11] = in vitro, Entero. aerog. ATCC 13048, read-out: MIC

| SMILES | MIC (Salmonella ATCC 12176; [2]) [mg/L] | ED50 (Kleb. pneumo. 4200; sc, Kleb. pneumo. 4200, s.c.) [mg/kg] | MIC (S. aureus HH 127; HH127) [mg/L] | MIC (Proteus morgani 179) [mg/L] | MIC (Kleb. pneumo. SK 1200; read-out: MIC) [mg/L] | MIC (Shigella HH 117) [mg/L] | MIC (Kleb. pneumo. SK 4200) [mg/L] | MIC (Pseudo. sp. HH 63) [mg/L] | MIC (S. aureus SK 23390; [3]) [mg/L] | ED50 (E. coli 12140; [4]) [mg/kg] | ED50 (E. coli 12140; [5]) [mg/kg] | MIC (Entero. cloacae HH 31254; HH31254) [mg/L] | MIC (Strep. Faecalis HH 34358; [6]) [mg/L] | MIC (Serra. Marc. ATCC 13880) [mg/L] | MIC (Kleb. pneumo. SK 1200) [mg/L] | MIC (S. aureus SK 23390; SK23390) [mg/L] | MIC (E. coli HH 33779; [8]) [mg/L] | MIC (Entero. cloacae HH 31254; [9]) [mg/L] | MIC (E. coli SK 12140; read-out: MIC) [mg/L] | MIC (S. aureus HH 127; [10]) [mg/L] | further results |
| --- | --- | --- | --- | --- | --- | --- | --- | --- | --- | --- | --- | --- | --- | --- | --- | --- | --- | --- | --- | --- | --- |
| NC(=O)CCn1nnnc1SCC1=C(C(=O)O)N2C(=O)C(NC(=O)[C@H](N)c3ccc(O)cc3)[C@H]2SC1 (stereo partly drawn) [X, 7-(D-α-Amino-4-hydroxyphenylacetamido)-3-[1-(2-carbamoylethyl)tetrazol-5-ylthiomethyl]-3-cephem-4-carboxylic acid] | 0.8 (≈ 1.5 µM) | 0.62 | 6.3 (≈ 11.8 µM) | 25 (≈ 46.8 µM) | 3.1 (≈ 5.8 µM) | 1.6 (≈ 2.99 µM) | 1.6 (≈ 2.99 µM) | > 200 | 12.5 (≈ 23.4 µM) | 25 | 0.78 | 1.6 (≈ 2.99 µM) | 25 (≈ 46.8 µM) | – | – | – | – | – | – | – | ED50 (Kleb. pneumo. 4200; po, Kleb. pneumo. 4200, p.o.): 15.6 mg/kg; MIC (E. coli HH 33779; HH33779): 1.6 mg/L (≈ 2.99 µM); MIC (E. coli SK 12140): 1.6 mg/L (≈ 2.99 µM) |
| O=C(O)CCCn1nnnc1SCC1=C(C(=O)O)N2C(=O)C(NC(=O)[C@H](O)c3ccccc3)[C@H]2SC1 (stereo partly drawn) [XII, 7-D-Mandelamido-3-[1-(3-carboxypropyl)tetrazol-5-ylthiomethyl]-3-cephem-4-carboxylic acid] | 0.4 (≈ 0.748 µM) | 2.9 | 3.1 (≈ 5.8 µM) | – | 0.8 (≈ 1.5 µM) | 0.4 (≈ 0.748 µM) | – | > 200 | – | > 50 | 1.84 | – | – | 12.5 (≈ 23.4 µM) | 1.6 (≈ 2.99 µM) | 0.4 (≈ 0.748 µM) | 1.6 (≈ 2.99 µM) | 0.8 (≈ 1.5 µM) | 1.6 (≈ 2.99 µM) | – | MIC (Salmonella ATCC 12176; in vitro): 0.8 mg/L (≈ 1.5 µM); MIC (Kleb. pneumo. SK 4200; [7]): 1.6 mg/L (≈ 2.99 µM); MIC [1]: 3.1 mg/L (≈ 5.8 µM); MIC (Strep. Faecalis HH 34358): 12.5 mg/L (≈ 23.4 µM) |
| O=C(O)CCCCCn1nnnc1SCC1=C(C(=O)O)N2C(=O)C(NC(=O)[C@H](O)c3ccccc3)[C@H]2SC1 (stereo partly drawn) [XIII, 7-D-Mandelamido-3-[1-(5-carboxypentyl)tetrazol-5-ylthiomethyl]-3-cephem-4-carboxylic acid] | 1.6 (≈ 2.84 µM) | 0.54 | – | 1.6 (≈ 2.84 µM) | 1.6 (≈ 2.84 µM) | 0.8 (≈ 1.42 µM) | 0.8 (≈ 1.42 µM) | > 200 | – | – | 1.56 | 0.8 (≈ 1.42 µM) | 25 (≈ 44.4 µM) | – | – | 0.8 (≈ 1.42 µM) | 3.1 (≈ 5.51 µM) | – | 1.6 (≈ 2.84 µM) | 3.1 (≈ 5.51 µM) | MIC [1, 11]: 6.3 mg/L (≈ 11.2 µM) |
| NC(=O)CCCCCn1nnnc1SCC1=C(C(=O)O)N2C(=O)C(NC(=O)[C@H](O)c3ccccc3)[C@H]2SC1 (stereo partly drawn) [XIV, 7-D-Mandelamido-3-[1-(5-carbamoylpentyl)tetrazol-5-ylthiomethyl]-3-cephem-4-carboxylic acid] | 3.1 (≈ 5.52 µM) | 1.1 | – | – | 3.1 (≈ 5.52 µM) | 0.8 (≈ 1.42 µM) | – | > 200 | – | – | 1.1 | – | – | 25 (≈ 44.5 µM) | – | 0.4 (≈ 0.712 µM) | 3.1 (≈ 5.52 µM) | 1.6 (≈ 2.85 µM) | 3.1 (≈ 5.52 µM) | 1.6 (≈ 2.85 µM) | MIC (Kleb. pneumo. SK 4200; [7]): 1.6 mg/L (≈ 2.85 µM); MIC [1, 11]: 6.3 mg/L (≈ 11.2 µM); MIC (Strep. Faecalis HH 34358): 12.5 mg/L (≈ 22.3 µM) |
| NC(=O)CCCn1nnnc1SCC1=C(C(=O)O)N2C(=O)C(NC(=O)CSC(F)(F)F)[C@H]2SC1 (stereo partly shown) [XX, 7-Trifluoromethylmercaptoacetamido-3-[1-(3-carbamoylpropyl)tetrazol-5-ylthiomethyl]-3-cephem-4-carboxylic acid] | 0.2 (≈ 0.369 µM) | – | – | 12.5 (≈ 23.1 µM) | – | 0.2 (≈ 0.369 µM) | 0.4 (≈ 0.739 µM) | > 200 | 0.2 (≈ 0.369 µM) | 21.5 | 0.7 | – | 6.3 (≈ 11.6 µM) | – | 0.4 (≈ 0.739 µM) | – | 0.8 (≈ 1.48 µM) | 0.8 (≈ 1.48 µM) | 0.8 (≈ 1.48 µM) | 0.4 (≈ 0.739 µM) | MIC [1]: 3.1 mg/L (≈ 5.72 µM) |
